From US8324390B2, “Tetrazole-substituted anthranilamides as pesticides” (Bayer CropScience AG, priority 2008, dated 2012) come the findings set out here.

Molecules are shown by their SMILES. Where two headings read alike, the source gives them in different places.

In data set [1] the test system is caterpillars of the armyworm (Spodoptera frugiperda). The data set can be described thus: Spodoptera frugiperda test (SPODFR spray treatment). In kind it is in vivo. The following applies: Spodoptera frugiperda, foliar, read-out: effect in % (caterpillars killed). From the text:
Solvent: 78.0 parts by weight of acetone

Data set [2] has as its system larvae of the mustard beetle (Phaedon cochleariae). The data set can be described thus: Phaedon test (PHAECO spray treatment). The following applies: Phaedon cochleariae, in Brassica rapa, foliar, read-out: effect in % (beetle larvae killed).
Data set [3] in a line: log P determination by HPLC (EEC Directive 79/831 Annex V.A8). The data set is classed as physicochemical. How it is done: The measurements were carried out using an Agilent 1100 LC system with a 50*4.6 Zorbax Eclipse C18 1.8 μm column (oven temperature 55° C., flow rate 2.0 ml/min).
The following mobile phases were used:
Mobile phase A: acetonitrile+1000 μl of formic acid/l
Mobile phase B: Millipore water+900 μl of formic acid/l

Where [4] appears, read: application rate 100 g/ha, maize leaf discs.
The mark [5] stands for this setting: reversed-phase HPLC, Zorbax Eclipse C18 column, by HPLC according to EEC Directive 79/831 Annex V.A8, read-out: log P.
Setting [6] is: reversed-phase HPLC, Zorbax Eclipse C18 column, determined by HPLC according to EEC Directive 79/831 Annex V.A8, read-out: log P.

`CNC(=O)c1cc(I)cc(C)c1NC(=O)c1cc(Cn2nnc(C(F)(F)F)n2)nn1-c1ncccc1C(F)(F)F` [Example 247]: the pest or weed control at 100 g/ha in data set [1] (setting [4]) and in data set [2] was no less than 80% in each case. Besides, the chromatographic logP in data set [3] (setting [5]) turned out to be 3.4.
For `CNC(=O)c1cc(Cl)cc(C)c1NC(=O)c1cc(Cn2nnc(C(F)(F)F)n2)nn1-c1ncccc1C(F)(F)F` [Example 226], the pest or weed control at 100 g/ha in data set [1] (setting [4]) and in data set [2] was no less than 80% each time. In addition, the chromatographic logP in data set [3] (setting [5]) worked out at 3.16.
Consider `Cc1cc(C#N)cc(C(=O)NC2CCCC2)c1NC(=O)c1cc(Cn2nnc(C(F)(F)F)n2)nn1-c1ccccc1Cl` [Example 401], for which the pest or weed control at 100 g/ha in data set [1] (setting [4]) and in data set [2] was no less than 80% in each case. In data set [3] (setting [6]), the chromatographic logP came to 3.84.
In the case of `Cc1cc(C#N)cc(C(=O)NCC#N)c1NC(=O)c1cc(Cn2nnc(C(F)(C(F)(F)F)C(F)(F)F)n2)nn1-c1ncccc1Cl` [Example 374], the pest or weed control at 100 g/ha in data set [1] (setting [4]) and in data set [2] was no less than 80% in each case. The chromatographic logP in data set [3] (setting [5]) turned out to be 3.29.
Take `CNC(=O)c1cc(Cl)cc(C)c1NC(=O)c1cc(Cn2nnnc2C(F)(F)F)nn1-c1ccccc1F` [Example 474]: the pest or weed control at 100 g/ha in data set [1] (setting [4]) and in data set [2] was no less than 80% throughout. Moreover, the chromatographic logP in data set [3] (setting [6]) was determined as 2.94.
For `Cc1cc(Br)cc(C(=O)NC2CC2)c1NC(=O)c1cc(Cn2nnc(C(F)(F)C(F)(F)F)n2)nn1-c1ncccc1Cl` [Example 145], the pest or weed control at 100 g/ha in data set [1] (in Zea mays) and in data set [2] was no less than 80% throughout. The chromatographic logP in data set [3] (log P) amounted to 3.74.
For `Cc1cc(F)cc(C(=O)NCC2CC2)c1NC(=O)c1cc(Cn2nnc(C(F)(F)F)n2)nn1-c1ncccc1Cl` [Example 48], the pest or weed control at 100 g/ha in data set [1] (in Zea mays) and in data set [2] was no less than 80% in each case. The chromatographic logP in data set [3] (log P) came out at 3.18.
`CNC(=O)c1cc(Cl)cc(C)c1NC(=O)c1cc(Cn2nnc(C(F)(F)C(F)(F)F)n2)nn1-c1ccccc1Cl` [Example 402]: the pest or weed control at 100 g/ha in data set [1] (setting [4]) and in data set [2] was no less than 80% throughout. The chromatographic logP in data set [3] (setting [6]) stood at 3.78.
In the case of `CCNC(=O)c1cc(Br)cc(C)c1NC(=O)c1cc(Cn2nnnc2C(F)(F)F)nn1-c1ncccc1C(F)(F)F` [Example 453], the pest or weed control at 100 g/ha in data set [1] (setting [4]) and in data set [2] was no less than 80% in each case. For the same compound, the chromatographic logP in data set [3] (setting [6]) stood at 3.17.
Turning to `Cc1cc(C#N)cc(C(=O)NC(C)C)c1NC(=O)c1cc(Cn2nnc(C(F)(F)C(F)(F)F)n2)nn1-c1ncccc1Cl` [Example 135], the pest or weed control at 100 g/ha in data set [1] (in Zea mays) and in data set [2] was no less than 80% in each case. The chromatographic logP in data set [3] (log P) was found to be 3.55.
For `Cc1cc(Cl)cc(C(=O)NC(C)(C)C)c1NC(=O)c1cc(Cn2nnc(C(F)(F)F)n2)nn1-c1ccccc1` [Example 403], the pest or weed control at 100 g/ha in data set [1] (setting [4]) and in data set [2] was no less than 80% in each case. Further, the chromatographic logP in data set [3] (setting [6]) was determined as 4.14.
Take `Cc1cc(F)cc(C(=O)NC(C)(C)C)c1NC(=O)c1cc(Cn2nnc(C(F)(F)F)n2)nn1-c1ncccc1Cl` [Example 115]: the pest or weed control at 100 g/ha in data set [1] (in Zea mays) and in data set [2] was no less than 80% each time. Also, the chromatographic logP in data set [3] (log P) stood at 3.51.
Take `Cc1cc(I)cc(C(=O)NC(C)C)c1NC(=O)c1cc(Cn2nnc(C(F)(C(F)(F)F)C(F)(F)F)n2)nn1-c1ncccc1Cl` [Example 381]: the pest or weed control at 100 g/ha in data set [1] (in Zea mays) and in data set [2] was no less than 80% in each case. Further, the chromatographic logP in data set [3] (log P) stood at 4.44.
In the case of `CNC(=O)c1cc(I)cc(C)c1NC(=O)c1cc(Cn2nnc(C(F)(F)C(F)(F)F)n2)nn1-c1ncccc1Cl` [Example 140], the pest or weed control at 100 g/ha in data set [1] (in Zea mays) and in data set [2] was no less than 80% each time. This compound also showed a chromatographic logP in data set [3] (log P) of 3.64.
